Results taken from PMC8779255, “Determining the Anticancer Activity of Sphingosine Kinase Inhibitors Containing Heteroatoms in Their Tail Structure” (Pharmaceutics, 2022).

Tests used:
[1] = In vitro metabolic stability in liver microsomes
Procedure: Microsome incubation was measured in triplicate in a 1.5 mL Eppendorf tube with 0.1 M potassium phosphate buffer (pH 7.4). […] It has a final volume of 100 mL in the presence of an NADPH regeneration system. In the final incubation mixture, 0.5 mg/mL HLM, 0.1 M potassium phosphate buffer (pH 7.4), and NADPH regeneration system (1 mM NADPH, 10 mM MgCl2) were included. In the pre-incubation mixture, HLM was added, and the mixture was run in a shaking incubator at approximately 350 rpm and 37 °C for 5 min under a Thermomixer (Eppendorf, Hamburg, Germany). Reactions were initiated by the addition of 1 mM NADPH and then quenched by the addition of 40 μL of ice-cold acetonitrile containing 10 μM chlorpropamide (CPP) as an internal standard at 0 and 30 min. After quenching, centrifugation of the incubation mixture was performed at 15,000× g for 5 min at 4 °C. An aliquot of 2 µL of the supernatant was injected into the LC-MS/MS system. The LC-MS/MS system was Xcalibur version 1.1.1 (Thermo Fisher Scientific Inc., Waltham, MA, USA).

[2] = target: T1, PP2A in HCT116 cells (Homo sapiens, UniProt P67775); assay: PP2A activity assay (immunoprecipitation kit); assay type: cell-based; conditions: HCT116, 24 h, 20 µM of compounds 10, 11 and 13; vs nontreated control cells
T1 construct: endogenous in cells; host or cells: HCT116
Procedure: The activity of PP2A was measured by using the PP2A kit according to the manufacturer’s instruction. The cell lysate was incubated with anti PP2A, C subunit antibody, and protein A agarose slurry for 2 h at 4 °C. The phosphopeptide solution (60 µL) was mixed and incubated at 30 °C for 10 min in a shaker. After a brief centrifuge, a 25 µL sample was liquated in ½ volume microplate and 100 µL malachite green phosphate detection working solution was added. After color development, absorbance was taken at 650 nm in a Multiskan GO microplate reader. A phosphate standard curve was constructed using phosphate standard, and results were calculated using this standard curve. This experiment was repeated three times (n = 6).

[3] = tested on: AKT and ERK phosphorylation in HCT116 cells; assay: Western blotting of pAKT and pERK; assay type: cell-based, human; conditions: HCT116, 20 µM
Procedure: (§1) The cell lysate was prepared after successive treatment using mammalian protein extraction buffer (Organic buffer + 10 mM NaCl + detergent pH 7.5) mixed with 1% protease/phosphatase inhibitor cocktail; protein was quantified with BCA assay, boiled at 95 °C for 10 min by adding sample loading buffer, separated using SDS-PAGE, and transferred into methanol-activated PVDF membrane. Primary antibodies were probed overnight in PVDF membrane at 4 °C and […] with subsequent HRP anti-mouse and anti-rabbit secondary antibodies at room temperature. Then, membranes were washed with TBST buffer, and images were detected by Amersham Imager 680 (GE Healthcare; Leiden, WZ, The Netherlands) using ECL solution. Band intensities were analyzed and quantified using Image J software (version 1.53i).

[4] = tested on: SK1 in HCT116 cells; assay: Western blotting of SK1 protein expression; assay type: cell-based, human; conditions: HCT116, 10 and 20 µM, 24 h, vs control cells
Procedure: as §1

T1 sequence (P67775 whole entry): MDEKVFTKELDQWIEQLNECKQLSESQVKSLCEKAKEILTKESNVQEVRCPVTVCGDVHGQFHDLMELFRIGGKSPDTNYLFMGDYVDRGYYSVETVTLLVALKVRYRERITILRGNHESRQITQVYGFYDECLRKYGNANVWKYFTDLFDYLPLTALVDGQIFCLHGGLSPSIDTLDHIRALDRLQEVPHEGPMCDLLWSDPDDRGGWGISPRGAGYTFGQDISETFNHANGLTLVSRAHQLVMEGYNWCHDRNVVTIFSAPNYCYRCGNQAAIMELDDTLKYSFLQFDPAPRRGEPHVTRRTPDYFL

liver microsomal stability, Human (%) ([1]; % remaining after 30 min, 0.5 mg/mL microsomes, NADPH): 70.3% | liver microsomal stability (in words) ([1]; human): stable | PP2A activity increase [2]: 1.73 fold
Compound: CCCCCCCOc1ccc(CCN2CCN(CCO)CC2)cc1 [Compound 10, 2-(4-(4-(Heptyloxy)phenethyl)piperazin-1-yl)ethanol]
phosphorylation of AKT and ERK [3]: significantly reduced phosphorylation of AKT and ERK | SK1 protein expression level [4]: does not affect
